Results taken from US7919471B2, “Method of modulating cell survival and reagents useful for same” (The University of Queensland, priority 1998, dated 2011).
Where no end group is shown, it is not given here.

How the values were obtained:
[1] = test system: cells; test: Cell death mediated by palmitoylated (membrane-linked) peptides; assay type: cell-based; settings: FIG. 8
Experimental: FIG. 8 is a graphical representation showing that peptide 29 which has a palmitoyl group at the membrane (amino) end and which facilitates association with the membrane mediates to cell death. […] F, Fluoro tagged; pen, penetratin.
Cells were treated with 2 μM peptide for 1-2 hours then washed. pen, penetratin, F29, 29 mer; Palm, palmitoylation. • ? pen F29 • ? pen F29 Palm • ? pen gp130 Palm • ? pen
The palmitoylation links the peptide to the plasma membrane. This membrane-linked 29mer leads to cell death whereas its soluble form protects cells against p75^NTR-mediated death signalling.
Cells were washed with peptide (2 μM) for approximately 110 minutes and the cells were then washed. Controls included penetratin-fused 29 mer, palmitoylated penetratin-fused 29 mer palmitoylated penetratin-fused gp130 and penetratin alone.

[2] = test system: membrane bound c35; test: Protection by soluble c35 / 29mer against death signalling from membrane-bound c35; assay type: cell-based; settings: for protection against membrane-linked, expressed c35: FIG. 7, microinjection of sptc35, peptide 30 minutes later
Experimental: FIG. 7 is a graphical representation showing protection of membrane-bound killing-domain by a soluble 35 amino acid peptide and a soluble 29 amino acid peptide. The cells were subjected to microinjection of sptc35 or GFP followed 30 minutes later by either peptide c35 or the 29mer peptide.

[3] = test system: dorsal root ganglia (DRG) sensory neurons; test: Microinjection of plasmid expression constructs into DRG neurons cultured in LIF; survival of injected neurons; assay type: cell-based, mouse; settings: microinjected DRG neurons cultured in LIF
Experimental: In order to investigate how p75^NTR signals neural death, the inventors devised a robust in vitro assay for p75^NTR induced death. Plasmid expression constructs were microinjected into individual neurons in the presence of the growth factor LIF, and the survival of the neurons expressing the different plasmids was determined. A series of plasmid constructs which encode incomplete p75^NTR proteins were made (see FIG. 1) and the ability of each protein to signal death when over expressed was assessed.
To further investigate the domain required for death signalling the inventors made constructs expressing p75^NTR proteins deleted for the extracellular domain or the extracellular and transmembrane domains. Proteins without extracellular domains retain the signal peptide which is responsible for correctly transporting the protein into the cell membrane. Proteins without transmembrane domains are expressed free in the cytoplasm of the cell and are epitope tagged with a FLAG motif for detection.
As the inventors had shown that the death of dorsal root ganglia (DRG) sensory neurons in vitro and in vivo, was, at least in part, mediated by p75^NTR, p75^NTR was over-expressed in these cells by microinjecting rat p75^NTR cDNA expressing plasmid into the nucleus of mouse sensory neurons. […] The injected neurons were observed over a 48 hour period and the viability was assessed. […]

[4] = test system: neurons; test: Neural death after growth factor withdrawal with Bcl-2 over-expression; assay type: cell-based, mouse
Source text: Thus, at the same expression levels in the same neural population, Bcl-2 was able to prevent or enhance neural cell death depending on the nature of the death signal.

[5] = test system: p75^NTR-mediated death; test: Modulation of p75NTR-induced killing of microinjected DRG neurons by co-expressed proteins, antisense or caspase inhibitors; assay type: cell-based, mouse; settings: for p75^NTR-mediated (induced) neural death: neurons over-expressing p75^NTR, in LIF, agent present or co-expressed
Source text: The inventors hypothesised that the free cytoplasmic expressed 35 amino acid domain might be able to interfere with death signalling from full length p75^NTR proteins by a dominant-negative mechanism, and attempted to inhibit the death by co-expressing the proteins. Given the results presented below regarding the ability of overexpression of Bcl-2 to enhance p75^NTR killing, this paradigm was used to test the ability of the c35 protein to inhibit death signalling.
As the inventors had shown that the death of dorsal root ganglia (DRG) sensory neurons in vitro and in vivo, was, at least in part, mediated by p75^NTR, p75^NTR was over-expressed in these cells by microinjecting rat p75^NTR cDNA expressing plasmid into the nucleus of mouse sensory neurons. These were cultured in the presence of the LIF to prevent neural death not linked to p75^NTR mechanisms. […] The injected neurons were observed over a 48 hour period and the viability was assessed. […] This was expected since the cytoplasmic tail contains a sequence with homology to the Fas/TNFR “death domain” [9].
The Bcl-2 family of proteins is involved in mediating apoptotic signalling pathways, and can homodimerise or heterodimerise with other family members. Bcl-2 and Bcl-xL are well characterised inhibitors of stress-induced apoptosis, JNK activation and neural death due to growth-factor limitation. However, both are poor inhibitors of Fas and TNFR mediated opoptosis. As it had been shown previously that high levels of Bcl-2 or Bcl-xL blocked neural cell death in a variety of models, the inventors examined whether over-expression of these proteins could block the death induced by p75^NTR.
The inventors tested, therefore, whether high endogenous Bcl-2 levels might be necessary for successful p75^NTR-mediated killing in normal neurons by assaying p75^NTR killing in Bcl-2 depleted cells. Endogenous Bcl-2 was down regulated by antisense as previously described.
To investigate whether the p75^NTR-Bcl-2 death-signalling cascade was dependent on caspase activation, inhibitors of caspases were employed.

[6] = test system: Schwann cells; test: Protection of Schwann cells against NGF-induced death; assay type: cell-based; settings: expressed from a genetic construct

soluble c35: 35 amino acid domain of p75NTR juxtaposed to the membrane, in soluble form (SEQ ID NO:8) (KRWNSCKQNKQGANSRPVNQTPPPEGEKLHSDSGI; listed as Rattus norvegicus)
cell death / protection [1]: tends to protect the cells
protection from death signalling by membrane bound c35 ([2]; FIG. 6): protects cells from death signalling in a dose-dependent manner
protection against membrane-linked, expressed c35 [2]: can also protect against membrane-linked, expressed c35

Bcl-2: over-expressed wildtype Bcl-2 protein
neural death / survival after expression of the construct alone [3]: had no effect on cell survival
neural death induced by NGF withdrawal [4]: able to protect against neural death induced by NGF withdrawal
p75^NTR-mediated (induced) neural death [5]: induced a significant increase in neural death

z-VAD [reference compound]
p75^NTR-mediated (induced) neural death [5]: significantly reduced

29mer: truncated form of the 35mer; six amino acids deleted from the C-terminal end (SEQ ID NO:12) (KRWNSCKQNKQGANSRPVNQTPPPEGEKL; listed as Rattus norvegicus)
protection against membrane-linked, expressed c35 [2]: also protected against membrane-bound c35

c35 protein: free cytoplasmic 35 amino acid p75NTR domain expressed from a plasmid, not membrane associated, FLAG tagged (KRWNSCKQNKQGANSRPVNQTPPPEGEKLHSDSGI; also: FLAG tagged, end not given here; listed as Rattus norvegicus)
neural death / survival after expression of the construct alone [3]: ability of the domain to induce death is removed
protection of Schwann cells against NGF-induced death [6]: protected Schwann cells against NGF-induced death
protection against membrane bound c35 ([2]; expressed in soluble form): can also protect cells against membrane bound c35
killing induced by co-expression of p75^NTR and Bcl-2 ([5]; co-expression in DRG neurons (FIG. 5)): able to inhibit this killing

Bcl-2 W188A protein: Bcl-2 protein with inactivating point mutation W188A in the BH2 domain
p75^NTR-mediated (induced) neural death [5]: protected neurons from any p75^NTR-induced death

G145E: Bcl-2 protein with inactivating point mutation G145E in the BH1 domain
p75^NTR-mediated (induced) neural death [5]: enhanced killing effect seen with Bcl-2 coexpression was abrogated
